Measurements: ChEMBL document CHEMBL1150248, “Halogenated derivatives QSAR model using spectral moments to predict haloacetic acids (HAA) mutagenicity” (Bioorg Med Chem, 2008)

system: Salmonella typhimurium; test: Mutagenic activity in Salmonella Typhimurium TA100 without metabolic activation; assay type: toxicity, organism-based; settings: salmonella enterica subsp. enterica serovar typhimurium

| Compound | Activity |
| --- | --- |
| O=C(O)C(Cl)(Cl)Br [BROMODICHLOROACETIC ACID] | Non-toxic |
| O=C(O)C(Br)(Br)Br [TRIBROMOACETIC ACID] | Non-toxic |
| O=C(O)C(Cl)(Cl)Cl [TRICHLOROACETIC ACID] | Non-toxic |
